Laboratory results: patent publication US7612201B2, “Pyrazole compounds” (Vernalis (Cambridge) Limited, priority 2002, dated 2009)
pIC50: −log10 of the molar value.

Molecular target: T1, yeast HSP90 (Saccharomyces cerevisiae, UniProt P02829)
T1 construct: made in house; host or cells: E. coli
Test: Malachite green ATPase assay
Assay type: biochemical
Conditions: activity range
From the text: The intrinsic ATPase activity of HSP90 may be measured using yeast HSP90 as a model system. The assay, based on the use of malachite green for the measurement of inorganic phosphate, was used to test the HSP90 inhibitory activity of the compounds of the Examples herein.
Malachite Green ATPase Assay
Chemicals are of the highest purity commercially available and all aqueous solutions are made up in AR water. Because of the need to minimise contamination with inorganic phosphate, precautions should be taken with solutions and apparatus used in the assays. Glassware and pH meters are rinsed with double distilled or deionised water before use and, wherever possible, plastic ware should be used. Gloves are worn for all procedures. • (1) Greiner 384-well (Greiner 781101) or Costar 384-well flat-bottomed polystyrene multiwell plates (VWR). • (2) Assay buffer of (a) 100 mM Tris-HCl, pH 7.4, (b) 150 mM KCl, (c) 6 mM MgCl2. Stored at room temperature. • (3) 0.0812% (w/v) malachite green (M 9636, Sigma Aldrich Ltd., Poole, UK). Stored at room temperature. • (4) 2.32% (w/v) polyvinyl alcohol USP (P 1097, Sigma Aldrich Ltd, Poole, UK) in boiling water (see Comment 1), allowed to cool, and stored at room temperature. • (5) 5.72% (w/v) ammonium molybdate in 6 M hydrochloric acid. Stored at room temperature. • (6) 34% (w/v) sodium citrate. Stored at room temperature. • (7) 100 mM ATP, disodium salt, special quality (47699, Sigma Aldrich). Stored at −20° C. • (8) E. coli expressed yeast HSP90 protein, purified >95% (see, e.g., Panaretou et al., 1998) and stored in 50 uL aliquots at −80° C.
Method • 1. Dilute test compounds to 500 μM in AR water (DMSO concentration will be 2.5%). Transfer 2.5 μl of these compounds directly from the daughter plate to the assay plate, giving a final assay concentration of 100 μM. To obtain 12 point IC50 values, perform serial dilutions 1:2 to produce a range of assay concentrations from 100 μM to 97.6 nM (2.5% DMSO), and transfer 2.5 μl of each concentration into the assay plate. Column 1 in the assay plate contains no compound, as a negative control. An additional row with no compound is also used as a background. • 2. Prepare ATP by diluting 100 mM stock to 925 μM with assay buffer, and aliquot 5 μl of diluted ATP to each well including controls (final assay concentration 370 μM). • 3. Add 5 μl of buffer to background row. • 4. Dilute enzyme preparation to 1.05 μM with assay buffer, and aliquot 5 μl into each compound well and to the negative control column. • 5. Collect the reagents to the bottom of the well, cover plate with plate seal and incubate overnight at 37 degC. • 6. First thing in the morning prepare the Malachite Green Reagent. Add 2 parts of Malachite Green Solution, 1 part of Polyvinyl Alcohol Solution, 1 part of Ammonium Molybdate Solution, and 2 parts of AR water. • 7. Invert to mix, and leave for approximately 1 hour until the colour turns from brown to golden yellow. • 8. Add 40 μl of Malachite Green Reagent to each well, allow 5 mins for colour to develop. • 9. Add 5 μl of Sodium Citrate Reagent to each well (see comment 2) • 10. Re-cover with plate seal and shake on plate shaker for at least 15 mins. • 11. Measure Absorbance at 620 nm using a suitable plate reader (e.g. Victor, Perkin Elmer Life Sciences, Milton Keynes, UK).
Comments • (1) The polyvinyl alcohol dissolves in boiling water with difficulty and stirring for 2-3 h is required. • (2) The time interval between addition of the malachite green reagent and the sodium citrate should be kept as short as possible in order to reduce the non-enzymatic hydrolysis of ATP. Once the sodium citrate is added, the colour is stable for up to 4 h at room temperature. • (3) Compounds can be added to the assay plates using a Biomek FX Robot (Beckman Coulter).

T1 sequence (P02829 whole entry): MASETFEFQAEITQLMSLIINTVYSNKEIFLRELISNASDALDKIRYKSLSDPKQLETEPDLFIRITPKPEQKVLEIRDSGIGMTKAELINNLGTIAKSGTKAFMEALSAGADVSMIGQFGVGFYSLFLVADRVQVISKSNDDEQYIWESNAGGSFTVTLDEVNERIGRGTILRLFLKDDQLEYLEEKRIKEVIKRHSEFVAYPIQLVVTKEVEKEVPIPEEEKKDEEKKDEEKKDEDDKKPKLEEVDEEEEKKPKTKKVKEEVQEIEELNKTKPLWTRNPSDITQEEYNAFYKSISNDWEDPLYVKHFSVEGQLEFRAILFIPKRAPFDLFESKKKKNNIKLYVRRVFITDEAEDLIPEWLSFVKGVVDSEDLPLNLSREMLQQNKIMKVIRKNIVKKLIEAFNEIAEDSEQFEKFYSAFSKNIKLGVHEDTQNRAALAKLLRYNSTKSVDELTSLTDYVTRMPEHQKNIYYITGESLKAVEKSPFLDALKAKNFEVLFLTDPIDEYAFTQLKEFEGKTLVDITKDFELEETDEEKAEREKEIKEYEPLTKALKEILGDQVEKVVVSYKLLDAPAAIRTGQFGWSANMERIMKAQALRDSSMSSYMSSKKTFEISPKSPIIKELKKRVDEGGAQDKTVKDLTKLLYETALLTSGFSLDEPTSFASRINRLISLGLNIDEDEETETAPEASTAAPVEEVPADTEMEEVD

| pIC50 | SMILES |
| --- | --- |
| < 4.30 | CC(C)(C)OC(=O)N1CCN(c2c[nH]nc2-c2cc(Cl)c(O)cc2O)CC1 [Example 1, 4-[3-(5-Chloro-2,4-dihydroxy-phenyl)-1H-pyrazol-4-yl]-piperazine-1-carboxylic acid tert-butyl ester] |
| < 4.30 | Oc1cc(O)c(-c2n[nH]cc2N2CCOCC2)cc1Cl [Example 3] |
| > 4.30 | CN1CCN(c2c[nH]nc2-c2cc(Cl)c(O)cc2O)CC1 [Example 4] |
| < 4.30 | Oc1cc(O)c(-c2n[nH]cc2N2CCN(Cc3ccco3)CC2)cc1Cl [Example 5, 4-Chloro-6-[4-(4-furan-2-ylmethyl-piperazin-1-yl)-1H-pyrazol-3-yl]-benzene-1,3-diol] |
| > 4.30 | CCN1CCN(c2c[nH]nc2-c2cc(Cl)c(O)cc2O)CC1 [Example 6] |
| > 4.30 | Oc1cc(O)c(-c2n[nH]cc2N2CCN(Cc3cccnc3)CC2)cc1Cl [Example 7] |
| < 4.30 | NNC(=O)CN1CCN(c2c[nH]nc2-c2cc(Cl)c(O)cc2O)CC1 [Example 8, {4-[3-(5-Chloro-2,4-dihydroxy-phenyl)-1H-pyrazol-4-yl]-piperazin-1-yl}-acetic acid hydrazide] |
| < 4.30 | OCCN1CCN(c2c[nH]nc2-c2cc(Cl)c(O)cc2O)CC1 [Example 9, 4-Chloro-6-{4-[4-(2-hydroxy-ethyl)-piperazin-1-yl]-1H-pyrazol-3-yl}-benzene-1,3-diol] |
| < 4.30 | N#CCN1CCN(c2c[nH]nc2-c2cc(Cl)c(O)cc2O)CC1 [Example 10] |
| < 4.30 | N#CCOc1cc(O)c(-c2n[nH]cc2N2CCN(CC#N)CC2)cc1Cl [Example 11] |
| > 4.30 | N#CCCCN1CCN(c2c[nH]nc2-c2cc(Cl)c(O)cc2O)CC1 [Example 13] |
| > 4.30 | COCCN1CCN(c2c[nH]nc2-c2cc(Cl)c(O)cc2O)CC1 [Example 14] |
| > 4.30 | COC(=O)c1ccc(CN2CCN(c3c[nH]nc3-c3cc(Cl)c(O)cc3O)CC2)o1 [Example 15] |
| > 4.30 | COC(=O)c1cccc(CN2CCN(c3c[nH]nc3-c3cc(Cl)c(O)cc3O)CC2)c1 [Example 16] |
| > 4.30 | Oc1cc(O)c(-c2n[nH]cc2N2CCN(Cc3ncon3)CC2)cc1Cl [Example 17] |
| > 4.30 | Oc1cc(O)c(-c2n[nH]cc2N2CCN(Cc3ccc(Cl)cc3)CC2)cc1Cl [Example 18] |
| > 4.30 | N#Cc1cccc(CN2CCN(c3c[nH]nc3-c3cc(Cl)c(O)cc3O)CC2)c1 [Example 19] |
| > 4.30 | NC(=O)CN1CCN(c2c[nH]nc2-c2cc(Cl)c(O)cc2O)CC1 [Example 20] |
| > 4.30 | COC(=O)c1ccc(CN2CCN(c3c[nH]nc3-c3cc(Cl)c(O)cc3O)CC2)cc1 [Example 21] |
| > 4.30 | N#Cc1ccc(CN2CCN(c3c[nH]nc3-c3cc(Cl)c(O)cc3O)CC2)cc1 [Example 22] |

| pIC50 | SMILES |
| --- | --- |
| > 4.30 | N#Cc1ccccc1CN1CCN(c2c[nH]nc2-c2cc(Cl)c(O)cc2O)CC1 [Example 23] |
| > 4.30 | NC(=O)c1cccc(CN2CCN(c3c[nH]nc3-c3cc(Cl)c(O)cc3O)CC2)c1 [Example 25] |
| > 4.30 | COc1ccc(CN2CCN(c3c[nH]nc3-c3cc(Cl)c(O)cc3O)CC2)cc1 [Example 26] |
| > 4.30 | C#CC[N+]1(CC#C)CCN(c2c[nH]nc2-c2cc(Cl)c(O)cc2O)CC1 [Example 27] |
| > 4.30 | O=C(O)c1ccc(CN2CCN(c3c[nH]nc3-c3cc(Cl)c(O)cc3O)CC2)o1 [Example 28] |
| > 4.30 | O=C(O)c1cccc(CN2CCN(c3c[nH]nc3-c3cc(Cl)c(O)cc3O)CC2)c1 [Example 29] |
| > 4.30 | OCCCN1CCN(c2c[nH]nc2-c2cc(Cl)c(O)cc2O)CC1 [Example 30] |
| > 4.30 | Oc1cc(O)c(-c2n[nH]cc2N2CCN(Cc3ccccn3)CC2)cc1Cl [Example 31] |
| < 4.30 | COC(=O)c1ccc(C(=O)N2CCN(c3c[nH]nc3-c3cc(Cl)c(O)cc3O)CC2)cc1 [Example 32] |
| < 4.30 | Cn1c(CN2CCN(c3c[nH]nc3-c3cc(Cl)c(O)cc3O)CC2)nc2ccccc21 [Example 33] |
| > 4.30 | Oc1cc(O)c(-c2n[nH]cc2N2CCN(CCc3ccccc3)CC2)cc1Cl [Example 34] |
| > 4.30 | O=C(O)c1ccc(CN2CCN(c3c[nH]nc3-c3cc(Cl)c(O)cc3O)CC2)cc1 [Example 35] |
| > 4.30 | NC(=O)c1ccc(CN2CCN(c3c[nH]nc3-c3cc(Cl)c(O)cc3O)CC2)cc1 [Example 36] |
| > 4.30 | Cc1cc(NC(=O)c2ccc(CN3CCN(c4c[nH]nc4-c4cc(Cl)c(O)cc4O)CC3)cc2)no1 [Example 37] |
| > 4.30 | Oc1cc(O)c(-c2n[nH]cc2N2CCN(Cc3ccc(-c4cnns4)cc3)CC2)cc1Cl [Example 38] |
| > 4.30 | Oc1cc(O)c(-c2n[nH]cc2N2CCN(Cc3ccc(-n4cccn4)cc3)CC2)cc1Cl [Example 39] |
| > 4.30 | O=C(CN1CCN(c2c[nH]nc2-c2cc(Cl)c(O)cc2O)CC1)N1CCOCC1 [Example 40] |
| < 4.30 | CC(C)(C)OC(=O)CN1CCN(c2c[nH]nc2-c2cc(Cl)c(O)cc2O)CC1 [Example 41] |
| > 4.30 | CC(c1ccccc1)N1CCN(c2c[nH]nc2-c2cc(Cl)c(O)cc2O)CC1 (centres unmarked) [Example 43] |
| > 4.30 | CCNC(=O)c1[nH]nc(-c2cc(Cl)c(O)cc2O)c1N1CCNCC1 [Example 51, 5-(5-Chloro-2,4-dihydroxy-phenyl)-4-piperazin-1-yl-2H-pyrazole-3-carboxylic acid ethylamide] |

| pIC50 | SMILES |
| --- | --- |
| < 4.30 | Oc1cc(F)ccc1-c1n[nH]cc1N1CCNCC1 [Example 52, 3-(4-Fluoro-2-hydroxyphenyl)-4-(piperazin-1-yl)-1H-pyrazole] |
| < 4.30 | Oc1cc(O)c(-c2n[nH]cc2N2CCNCC2)cc1Br [Example 55] |
| < 4.30 | Cn1ncc(N2CCNCC2)c1-c1cc(Br)c(O)cc1O [Example 56] |
| < 4.30 | Cn1cc(N2CCNCC2)c(-c2cc(Br)c(O)cc2O)n1 [Example 57] |
| < 4.30 | CCn1cc(N2CCNCC2)c(-c2cc(Br)c(O)cc2O)n1 [Example 59] |
| < 4.30 | CC(C)n1ncc(N2CCNCC2)c1-c1cc(Br)c(O)cc1O [Example 60] |
| < 4.30 | CC(C)n1cc(N2CCNCC2)c(-c2cc(Br)c(O)cc2O)n1 [Example 61] |
| < 4.30 | Oc1cc(O)c(-c2c(N3CCNCC3)cnn2Cc2ccccc2)cc1Br [Example 62] |
| < 4.30 | Oc1cc(O)c(-c2nn(Cc3ccccc3)cc2N2CCNCC2)cc1Br [Example 63] |
| < 4.30 | CCOC(=O)Cn1cc(N2CCNCC2)c(-c2cc(Br)c(O)cc2O)n1 [Example 64] |
| > 4.30 | Oc1cc(O)c(-c2n[nH]cc2N2CCNCC2)cc1CCc1ccc2c(c1)OCO2 [Example 65] |
| > 4.30 | Oc1cc(O)c(-c2n[nH]cc2N2CCNCC2)cc1CCc1cccc2c1OCO2 [Example 66] |
| > 4.30 | COc1ccc(OC)c(CCc2cc(-c3n[nH]cc3N3CCNCC3)c(O)cc2O)c1 [Example 67] |
| > 4.30 | Oc1cc(O)c(-c2n[nH]cc2N2CCNCC2)cc1CCc1ccccc1F [Example 68] |
| > 4.30 | Oc1cc(O)c(-c2n[nH]cc2N2CCNCC2)cc1CCc1cccc(F)c1 [Example 69] |
| > 4.30 | Oc1cc(O)c(-c2n[nH]cc2N2CCNCC2)cc1CCc1ccc(F)cc1 [Example 70] |
| > 4.30 | Cc1cccc(CCc2cc(-c3n[nH]cc3N3CCNCC3)c(O)cc2O)c1 [Example 71] |
| > 4.30 | Cc1ccc(CCc2cc(-c3n[nH]cc3N3CCNCC3)c(O)cc2O)cc1 [Example 72] |
| > 4.30 | Cc1ccc(CCc2cc(-c3n[nH]cc3N3CCNCC3)c(O)cc2O)c(C)c1 [Example 73] |
